Assay results as given in PubChem BioAssay AID330 (DTP/NCI, 2004).
Toxic doses and inconclusive results are not listed. Rule for the calls: active = survival T/C of 150% or more; inactive = T/C below 125% in these data.

Tested on: P388 leukemia ip, CD2F1 mice, survival T/C
Assay: NCI In Vivo Anticancer Drug Screen. Data for tumor model P388 Leukemia (intraperitoneal) in CD2F1 (CDF1) mice
Settings: endpoint: median survival time, higher = longer survival
In short: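 Mice carrying the transplanted tumor received test compound or vehicle. Survival was recorded in each group, and the value is the treated-group measurement divided by that of the vehicle-treated control group.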

[1] = dose: 100.0 mg/kg/injection, schedule: Q01DX009 (ip), vehicle: saline
[2] = dose: 200.0 mg/kg/injection, schedule: Q01DX009 (ip), vehicle: saline
[3] = dose: 100.0 mg/kg/injection, schedule: Q04DX003 (ip), vehicle: saline with Tween-80
[4] = dose: 200.0 mg/kg/injection, schedule: Q04DX003 (ip), vehicle: saline with Tween-80
[5] = dose: 400.0 mg/kg/injection, schedule: Q04DX003 (ip), vehicle: saline with Tween-80
[6] = dose: 50.0 mg/kg/injection, schedule: Q01DX005 (ip), vehicle: saline with Tween-80
[7] = dose: 100.0 mg/kg/injection, schedule: Q01DX005 (ip), vehicle: saline with Tween-80
[8] = dose: 50.0 mg/kg/injection, schedule: Q01DX005 (ip), vehicle: Klucel (hydroxypropylcellulose) (HPC)
[9] = dose: 100.0 mg/kg/injection, schedule: Q01DX005 (ip), vehicle: Klucel (hydroxypropylcellulose) (HPC)
[10] = dose: 200.0 mg/kg/injection, schedule: Q01DX005 (ip), vehicle: Klucel (hydroxypropylcellulose) (HPC)
[11] = dose: 50.0 mg/kg/injection, schedule: Q01DX009 (ip), vehicle: other
[12] = dose: 100.0 mg/kg/injection, schedule: Q01DX009 (ip), vehicle: other
[13] = dose: 200.0 mg/kg/injection, schedule: Q01DX009 (ip), vehicle: other
[14] = dose: 25.0 mg/kg/injection, schedule: Q01DX009 (ip), vehicle: other

Measured: T/C

O=C1c2ccccc2C(=O)c2cc(NC(=O)C(F)(F)F)ccc21
inactive: dose: 50.0 mg/kg/injection, schedule: Q01DX005 (ip), vehicle: Klucel + Tween-80 99 % of control | dose: 100.0 mg/kg/injection, schedule: Q01DX005 (ip), vehicle: Klucel + Tween-80 95 % of control | dose: 200.0 mg/kg/injection, schedule: Q01DX005 (ip), vehicle: Klucel + Tween-80 96 % of control

O=C(O)C12C=CC(CC1)CC2
inactive: dose: 60.0 mg/kg/injection, schedule: Q01DX005 (ip), vehicle: Klucel (hydroxypropylcellulose) (HPC) 99 % of control | dose: 120.0 mg/kg/injection, schedule: Q01DX005 (ip), vehicle: Klucel (hydroxypropylcellulose) (HPC) 105 % of control | dose: 240.0 mg/kg/injection, schedule: Q01DX005 (ip), vehicle: Klucel (hydroxypropylcellulose) (HPC) 100 % of control

OC1CC2CC1CC2O (stereo unspecified)
inactive: dose: 50.0 mg/kg/injection, schedule: Q01DX009 (ip), vehicle: saline 101 % of control | [1] 98 % of control | [2] 104 % of control

O=C(NCCc1ccccc1)c1ccccc1
inactive: dose: 50.0 mg/kg/injection, schedule: Q04DX003 (ip), vehicle: saline with Tween-80 100 % of control | [3] 90 % of control | [4] 95 % of control | [5] 100 % of control

CN(C)CCC(=O)C(=Cc1cccs1)C(=O)CCN(C)C
inactive: dose: 60.0 mg/kg/injection, schedule: Q01DX005 (ip), vehicle: saline 101 % of control | dose: 120.0 mg/kg/injection, schedule: Q01DX005 (ip), vehicle: saline 98 % of control | dose: 240.0 mg/kg/injection, schedule: Q01DX005 (ip), vehicle: saline 106 % of control

NC(=O)N=Nc1c(F)c(F)c(F)c(F)c1F
inactive: dose: 6.25 mg/kg/injection, schedule: Q01DX005 (ip), vehicle: saline with Tween-80 103 % of control | dose: 12.5 mg/kg/injection, schedule: Q01DX005 (ip), vehicle: saline with Tween-80 106 % of control | dose: 25.0 mg/kg/injection, schedule: Q01DX005 (ip), vehicle: saline with Tween-80 116 % of control | [6] 116 % of control | [7] 113 % of control

CNc1ccccc1Br
inactive: [6] 100 % of control | [7] 100 % of control | dose: 200.0 mg/kg/injection, schedule: Q01DX005 (ip), vehicle: saline with Tween-80 100 % of control

Cc1ccc(CSCC(NC(=O)OC(C)(C)C)C(=O)O)cc1 (stereo unspecified)
inactive: [8] 104 % of control | [9] 97 % of control | [10] 92 % of control

O=S(=O)(O)SNCCN1CCOCC1
inactive: dose: 6.25 mg/kg/injection, schedule: Q01DX009 (ip), vehicle: saline 105 % of control | dose: 12.5 mg/kg/injection, schedule: Q01DX009 (ip), vehicle: saline 110 % of control | dose: 25.0 mg/kg/injection, schedule: Q01DX009 (ip), vehicle: saline 110 % of control

CCCN(CCC)C1=CC(=O)C(N(CCC)CCC)=CC1=O
inactive: [8] 117 % of control | [9] 89 % of control

Cc1nc(Nc2ccccc2)c2c(-c3ccccc3)c[nH]c2n1
inactive: [8] 89 % of control | [9] 90 % of control | [10] 100 % of control

CCc1[nH]c(=O)nc(N)c1-c1ccc(N2CCCCC2)c([N+](=O)[O-])c1
inactive: dose: 60.0 mg/kg/injection, schedule: Q01DX005 (ip), vehicle: saline with Tween-80 93 % of control | dose: 120.0 mg/kg/injection, schedule: Q01DX005 (ip), vehicle: saline with Tween-80 96 % of control | dose: 240.0 mg/kg/injection, schedule: Q01DX005 (ip), vehicle: saline with Tween-80 97 % of control

COc1ccc(C(=O)c2ncccc2C)cc1OC
inactive: [11] 95 % of control | [12] 99 % of control | [13] 95 % of control

CN(C)c1ccc(C=C2C(=O)OC(C)(C)OC2=O)cc1
inactive: [8] 114 % of control | [9] 105 % of control | [10] 114 % of control

C/C(N)=C(\C#N)C(=O)c1ccccc1
inactive: [8] 100 % of control | [9] 103 % of control | [10] 111 % of control

CC(C)(C)C1=NC(c2ccccc2)N2C(c3ccccc3)NC(c3ccccc3)C1C2c1ccccc1 (stereo unspecified)
inactive: dose: 50.0 mg/kg/injection, schedule: Q01DX009 (ip), vehicle: saline with Tween-80 100 % of control | dose: 100.0 mg/kg/injection, schedule: Q01DX009 (ip), vehicle: saline with Tween-80 93 % of control | dose: 200.0 mg/kg/injection, schedule: Q01DX009 (ip), vehicle: saline with Tween-80 91 % of control

Cc1ccc(S(=O)(=O)NC(CN)C(=O)O)cc1 (stereo unspecified)
inactive: [14] 104 % of control | [11] 101 % of control | [12] 101 % of control | [13] 107 % of control | dose: 400.0 mg/kg/injection, schedule: Q01DX009 (ip), vehicle: other 104 % of control

[N-]=[N+]=NCC(=O)N1c2ccccc2Sc2ccccc21
inactive: [14] 108 % of control | [11] 103 % of control | [12] 95 % of control | [13] 108 % of control

S=c1[nH]c2ccccc2n2cccc12
inactive: dose: 50.0 mg/kg/injection, schedule: Q01DX009 (ip), vehicle: Klucel (hydroxypropylcellulose) (HPC) 108 % of control | dose: 100.0 mg/kg/injection, schedule: Q01DX009 (ip), vehicle: Klucel (hydroxypropylcellulose) (HPC) 108 % of control | dose: 200.0 mg/kg/injection, schedule: Q01DX009 (ip), vehicle: Klucel (hydroxypropylcellulose) (HPC) 106 % of control

CNC(=O)c1ccc(OC)cc1C1(O)c2ccccc2CCc2ccccc21
inactive: [8] 92 % of control | [9] 92 % of control | [10] 89 % of control

Cc1ccc(S(=O)(=O)OC2CC(C(=O)O)N(S(=O)(=O)c3ccc(C)cc3)C2)cc1 (stereo unspecified)
inactive: [3] 100 % of control | [4] 95 % of control | [5] 95 % of control

CC(=O)C1(C)CC=CCC1C(=O)O (stereo unspecified)
inactive: [1] 100 % of control | [2] 100 % of control | dose: 400.0 mg/kg/injection, schedule: Q01DX009 (ip), vehicle: saline 100 % of control
